Results: patent US20030092644A1, “Treatment of viral infections using levovirin” (priority 2002, published 2003)
Read-outs that look alike come from different tables or passages of the source.

What was measured:
cells infected with HIV [1] = test system: cells infected with HIV
Influenza (INFL) A = assay: microbe, parasite or virus in culture; format: cell-based; settings: read-out: Dir. Antiviral activity (EC50) INFL. A
[2] = test system: human immunodeficiency virus (HIV); assay: microbe, parasite or virus in culture; format: cell-based; settings: Human immunodeficiency virus 1, read-out: Dir. Antiviral activity (EC50) HIV
IL-2 = assay: SEB-activated T cell cytokine ELISA, IL-2; format: cell-based, human
TNF-α = assay: SEB-activated T cell cytokine ELISA, TNF-α; format: cell-based, human
[3] = test system: cells infected with Influenza B; assay: Cytotoxicity in Influenza B assay; format: cell-based; settings: read-out: Cytotoxicity (CC50) INFL. B
Protocol: (§1) In vitro testing for direct antiviral activity of Levovirin™ and Ribavirin against influenza A and B, parainfluenza 1 and 2, and respiratory syncytial virus were performed as described in Huffman, J. H. et al. Antiviral Chem. and Chemother. 1997, 8: 75-83 and Barnard, D. L. et al. Antiviral Chem. and Chemother 1997, 8: 223-233. Anti-human immunodeficiency virus activity was assessed by the National Cancer Institute using a procedure designed to detect agents acting at any stage of the virus reproductive cycle [Weislow, O. W. et al., J. Natl. Cancer Inst. 1989, 81: 577-5861. Anti-hepatitis B (HBV) activity was monitored by using an assay as described by Marion et al., Hepatology 1987, 7: 724-731. Anti-HIV activity and cytotoxicity for Ribavirin was determined from previous data [McCormick, J. B., Lancet, 1998, II: 1367-1369.

Parainfluenza (PARA) 3 = assay: organism not typed; format: cell-based, Parainfluenza 3; settings: read-out: Dir. Antiviral activity (EC50) PARA 3
IFN-γ = assay: SEB-activated T cell cytokine ELISA, IFN-γ; format: cell-based, human
rats = settings: rat, in vivo, po, 180 mg/kg
[4] = test system: cells infected with Influenza A; assay: Cytotoxicity in Influenza A assay; format: cell-based; settings: read-out: Cytotoxicity (CC50) INFL. A
Protocol: as §1

Hepatitis B (HBV) = assay: microbe, parasite or virus in culture; format: cell-based; settings: read-out: Dir. Antiviral activity (EC50) HBV
[5] = test system: cells infected with Parainfluenza 1
[6] = test system: cells infected with Parainfluenza 3
[7] = test system: respiratory syncytial virus (RSV); assay: microbe, parasite or virus in culture; format: cell-based; settings: human respiratory syncytial virus, read-out: Dir. Antiviral activity (EC50) RSV
Parainfluenza (PARA) 1 = assay: organism not typed; format: cell-based, Parainfluenza 1; settings: read-out: Dir. Antiviral activity (EC50) PARA 1
[8] = test system: Concanavalin A induced hepatitis; format: in vivo; settings: BALB/c mice, single i.p. dose 20 μg (1 mg/kg) 1 hr before i.v. 0.3 mg Con A; serum after 24 hr; PBS control about 1900 U/ml
Influenza (INFL) B = assay: Direct antiviral activity, Influenza B; format: cell-based; settings: Influenza B virus; read-out: Dir. Antiviral activity (EC50) INFL. B
Protocol: as §1

[9] = Cytotoxicity in Influenza B assay; format: cell-based; settings: cells infected with Influenza B; read-out: Cytotoxicity (CC50) INFL. B
Protocol: as §1

[10] = test system: human immunodeficiency virus (HIV); settings: read-out: Dir. Antiviral activity (EC50) HIV; cited from earlier work
cells infected with HIV [11] = settings: cited from earlier work
[12] = Cytotoxicity in Influenza A assay; format: cell-based; settings: cells infected with Influenza A; read-out: Cytotoxicity (CC50) INFL. A
Protocol: as §1

[13] = SEB stimulated T cells, 48 hrs, 0-10 μM compound, +/- standard deviation, 100% = no effect

NC(=O)c1ncn([C@H]2O[C@@H](CO)[C@H](O)[C@@H]2O)n1 [Levovirin™, 1-(β-L-ribofuranosyl)-1,2,4-triazole-3-carboxamide]
CC50 (cells infected with HIV [1]): > 600 µM
EC50 (Influenza (INFL) A): > 200 µM
EC50 [2]: > 600 µM
IL-2, mean percentage of activated control (IL-2): 131 ± 12%
TNF-α, mean percentage of activated control (TNF-α): 144 ± 7%
CC50 [3]: > 200 µM
EC50 (Parainfluenza (PARA) 3): > 1000 µM
IFN-γ, mean percentage of activated control (IFN-γ): 122 ± 3%
Clinical pathology (hemolytic anemia, leukopenia) (rats): did not produce any observable clinical pathology
CC50 [4]: > 200 µM
EC50 (Hepatitis B (HBV)): > 100 µM
CC50 [5]: > 1000 µM
CC50 [6]: > 1000 µM
EC50 [7]: > 1000 µM
EC50 (Parainfluenza (PARA) 1): > 1000 µM

NC(=O)c1ncn([C@@H]2O[C@H](CO)[C@@H](O)[C@H]2O)n1 [Ribavirin]
Con A induced serum ALT level [8]: 969 U/ml
EC50 (Influenza (INFL) A): 6.1 µM
IL-2, mean percentage of activated control (IL-2; [13]): 143 ±18%
EC50 (Influenza (INFL) B): 1.9 µM
TNF-α, mean percentage of activated control (TNF-α; [13]): 124 ± 4%
CC50 [9]: > 100 µM
EC50 (Parainfluenza (PARA) 3): 4 µM
IFN-γ, mean percentage of activated control (IFN-γ; [13]): 131 ± 6%
EC50 [10]: 40 µM
CC50 (cells infected with HIV [11]): > 40 µM
Clinical pathology (hemolytic anemia, leukopenia) (rats): produced significant hemolytic anemia and leukopenia
CC50 [12]: 56 µM
EC50 (Hepatitis B (HBV)): > 100 µM
EC50 [7]: 5 µM
EC50 (Parainfluenza (PARA) 1): 40 µM
